The values below come from patent US12606543B2, “Indole derivatives as serotonergic agents useful for the treatment of disorders related thereto” (priority 2023, dated 2026).

The nature of the data set: Pharmacokinetic studies in rat (i.v.). In kind it is in vivo. As to conditions: male, Sprague-Dawley, plasma. On the procedure: Animals: Male Sprague-Dawley rats (˜225-350 g) from Charles River Labs were acclimatized for a minimum of 5 days prior to start of study procedures. Body weights were recorded on the day of dosing.
Any abnormalities were documented including presence/absence of wet dog shakes/back muscle contractions (WDS/BMC).
Dosing: Formulations were administered intravenously (i.v.) via the tail vein using a 25 G needle connected to a 1 cc syringe.
The exemplary compounds of Formula (I) were freshly prepared at the appropriate concentrations in 5% Tween-80 in saline.
Blood collection time (h): 0, […], 1 and 4
Volume/time-point: ˜0.25 mL (saphenous vein)
Instrumentation: AB Sciex QTRAP 4000 or 6500 MS/MS system equipped with an LC system with a binary pump, a solvent degasser, a thermostated column compartment, and a multiplate autosampler.
Analysis software: Phoenix® WinNonlin® 8.3 (Pharsight, Certara, Mountainview, CA).
Analysis methods: non-compartmental analysis, linear up/log down trapezoidal rule.
PK parameters: t1/2 and AUC0-tlast was estimated.
The Compounds of Formula (I) were freshly prepared at the appropriate concentrations in 5% Tween-80 in saline.
Instrumentation: AB Sciex QTRAP 4000 or 6500 MS/MS system equipped with an LC system with a binary pump, a solvent degasser, a thermostated column compartment and a multiplate autosampler.
PK parameters: t1/2 and AUC0-tlast will be estimated.

The mark [1] stands for this setting: intravenous, dose per Dose column (1.32-2.09 mg/kg), first animal (R07/R04/R01/R10), read-out: Plasma concentration.
The mark [2] stands for this setting: intravenous, dose per Dose column (1.32-2.09 mg/kg), mean of 3 rats, read-out: Plasma concentration, Mean ± SD.
Setting [3] is: intravenous, dose per Dose column (1.32-2.09 mg/kg), second animal (R08/R05/R02/R11), read-out: Plasma concentration.
Where [4] appears, read: intravenous, dose per Dose column (1.32-2.09 mg/kg), third animal (R09/R06/R03/R12), read-out: Plasma concentration.
The mark [5] stands for this setting: iv, rat plasma, i.v., dose per Dose column, estimated from 2 points only, first animal (R07/R04/R01/R10), read-out: Apparent t1/2 (converted).
The mark [6] stands for this setting: iv, rat plasma, i.v., dose per Dose column, estimated from 2 points only, mean of 3 rats, read-out: Apparent t1/2, Mean ± SD (converted).
Setting [7] is: iv, rat plasma, i.v., dose per Dose column, estimated from 2 points only, second animal (R08/R05/R02/R11), read-out: Apparent t1/2 (converted).
[8] abbreviates: iv, rat plasma, i.v., dose per Dose column, estimated from 2 points only, third animal (R09/R06/R03/R12), read-out: Apparent t1/2 (converted).
The mark [9] stands for this setting: iv, rat plasma, i.v., dose per Dose column, first animal (R07/R04/R01/R10), read-out: AUC0-tlast.
[10] abbreviates: iv, rat plasma, i.v., dose per Dose column, mean of 3 rats, read-out: AUC0-tlast, Mean ± SD.
[11] abbreviates: iv, rat plasma, i.v., dose per Dose column, second animal (R08/R05/R02/R11), read-out: AUC0-tlast.
[12] abbreviates: iv, rat plasma, i.v., dose per Dose column, third animal (R09/R06/R03/R12), read-out: AUC0-tlast.
The mark [13] stands for this setting: iv, 1.19 mg/kg, rat plasma, i.v., dose 1.19 mg/kg, mean of 3 rats, read-out: Plasma concentration, Mean ± SD.
The mark [14] stands for this setting: iv, 1.19 mg/kg, rat plasma, i.v., dose 1.19 mg/kg, rat R01, read-out: Plasma concentration, R01.
Where [15] appears, read: iv, 1.19 mg/kg, rat plasma, i.v., dose 1.19 mg/kg, rat R02, read-out: Plasma concentration, R02.
Setting [16] is: iv, 1.19 mg/kg, rat plasma, i.v., dose 1.19 mg/kg, rat R03, read-out: Plasma concentration, R03.

Read-outs that look alike come from different tables or passages of the source.

For the compound `[2H]C([2H])(c1c[nH]c2ccc(OCCCCCN3C(=O)C4CCCCC4C3=O)cc12)[C@H]1CCCN1C([2H])([2H])[2H]` (mixture of isomers) [Rac (R) I-248], the concentration at 0.25 h amounted to 235 ng/mL under setting [1], 377 ± 123 ng/mL under setting [2], 437 ng/mL under setting [3] and 459 ng/mL under setting [4]. Further, the concentration at 1 h by setting is: under setting [1], 134 ng/mL; under setting [2], 144 ± 15.9 ng/mL; under setting [3], 135 ng/mL; under setting [4], 162 ng/mL. Further, the concentration at 4 h under setting [1] was 27.8 ng/mL, the concentration at 4 h under setting [2] turned out to be 18.8 ± 8.29 ng/mL, the concentration at 4 h under setting [3] stood at 11.5 ng/mL and the concentration at 4 h under setting [4] worked out at 17 ng/mL. For the same compound, the half-life under setting [5] was 1.25 h, the half-life under setting [6] was 0.939 ± 0.269 h, the half-life under setting [7] was 0.747 h and the half-life under setting [8] was 0.823 h. Also, the AUC(0-t) reads like this: under setting [9], 402 ng·h/mL; under setting [10], 474 ± 71 ng·h/mL; under setting [11], 477 ng·h/mL; under setting [12], 544 ng·h/mL.

Consider `[2H]C([2H])(c1c[nH]c2ccc(OCCCCN3C(=O)c4ccccc4C3=O)cc12)[C@H]1CCCN1C([2H])([2H])[2H]` [(R) I-244, (R)-2-(4-((3-((1-(Methyl-d3)pyrrolidin-2-yl)methyl-d2)-1H-indol-5-yl)oxy)butyl)isoindoline-1,3-dione], for which the concentration at 0.25 h was 252 ng/mL under setting [1], 292 ± 59.4 ng/mL under setting [2], 360 ng/mL under setting [3] and 263 ng/mL under setting [4]. Also, the concentration at 1 h reads like this: under setting [1], 132 ng/mL; under setting [2], 130 ± 21.6 ng/mL; under setting [3], 150 ng/mL; under setting [4], 107 ng/mL. The concentration at 4 h is 20.7 ng/mL under setting [1], 22 ± 1.63 ng/mL under setting [2], 23.8 ng/mL under setting [3] and 21.4 ng/mL under setting [4]. Besides, the half-life under setting [5] was 1.06 h, the half-life under setting [6] was 1.05 ± 0.0494 h, the half-life under setting [7] is 1 h and the half-life under setting [8] was 1.1 h. Besides, the AUC(0-t) came out at 390 ng·h/mL under setting [9], 415 ± 65.7 ng·h/mL under setting [10], 490 ng·h/mL under setting [11] and 366 ng·h/mL under setting [12].

On to `CSc1ccc2[nH]cc(C[C@H]3CCCN3C)c2c1` [(R) I-1, (R)-3-((1-Methylpyrrolidin-2-yl)methyl)-5-(methylthio)-1H-indole], for which the half-life was 0.785 ± 0.174 h (iv, 1.19 mg/kg, rat plasma, i.v. 1.19 mg/kg, mean of 3 rats, estimated from 2 points only, read-out: Apparent t1/2, Mean ± SD (converted)); 0.975 h (iv, 1.19 mg/kg, rat plasma, i.v. 1.19 mg/kg, rat R01, estimated from 2 points only, read-out: Apparent t1/2, R01 (converted)); 0.632 h (iv, 1.19 mg/kg, rat plasma, i.v. 1.19 mg/kg, rat R02, estimated from 2 points only, read-out: Apparent t1/2, R02 (converted)); 0.748 h (iv, 1.19 mg/kg, rat plasma, i.v. 1.19 mg/kg, rat R03, estimated from 2 points only, read-out: Apparent t1/2, R03 (converted)). For the same compound, the AUC(0-t) reads like this: (iv, 1.19 mg/kg, rat plasma, i.v. 1.19 mg/kg, mean of 3 rats, read-out: AUC0-tlast, Mean ± SD) 136 ± 22 ng·h/mL; (iv, 1.19 mg/kg, rat plasma, i.v. 1.19 mg/kg, rat R01, read-out: AUC0-tlast, R01) 151 ng·h/mL; (iv, 1.19 mg/kg, rat plasma, i.v. 1.19 mg/kg, rat R02, read-out: AUC0-tlast, R02) 111 ng·h/mL; (iv, 1.19 mg/kg, rat plasma, i.v. 1.19 mg/kg, rat R03, read-out: AUC0-tlast, R03) 147 ng·h/mL. In addition, the concentration at 0.25 h reads like this: under setting [13], 109 ± 12.9 ng/mL; under setting [14], 120 ng/mL; under setting [15], 112 ng/mL; under setting [16], 94.7 ng/mL. Also, the concentration at 1 h is 46.1 ± 18.1 ng/mL under setting [13], 42.3 ng/mL under setting [14], 30.3 ng/mL under setting [15] and 65.8 ng/mL under setting [16]. For the same compound, the concentration at 4 h under setting [13] worked out at 3.96 ± 2.8 ng/mL, the concentration at 4 h under setting [14] stood at 7.04 ng/mL, the concentration at 4 h under setting [15] came out at 1.56 ng/mL and the concentration at 4 h under setting [16] turned out to be 3.27 ng/mL.

As for `[2H]C([2H])(c1c[nH]c2ccc(OCCCCCN3C(=O)c4ccccc4C3=O)cc12)[C@H]1CCCN1C([2H])([2H])[2H]` [(R) I-245, (R)-2-(5-((3-((1-(Methyl-d3)pyrrolidin-2-yl)methyl-d2)-1H-indol-5-yl)oxy)pentyl)isoindoline-1,3-dione], the concentration at 0.25 h is 307 ng/mL under setting [1], 178 ± 119 ng/mL under setting [2], 154 ng/mL under setting [3] and 71.8 ng/mL under setting [4]. In addition, the concentration at 1 h under setting [1] is 170 ng/mL, the concentration at 1 h under setting [2] amounted to 130 ± 36.6 ng/mL, the concentration at 1 h under setting [3] was determined as 121 ng/mL and the concentration at 1 h under setting [4] was found to be 98.3 ng/mL. The concentration at 4 h by setting is: under setting [1], 39.9 ng/mL; under setting [2], 43.9 ± 4.21 ng/mL; under setting [3], 43.6 ng/mL; under setting [4], 48.3 ng/mL. The half-life is 1.32 h under setting [5], 2.1 ± 0.806 h under setting [6], 2.05 h under setting [7] and 2.93 h under setting [8]. In addition, the AUC(0-t) reads like this: under setting [9], 528 ng·h/mL; under setting [10], 397 ± 120 ng·h/mL; under setting [11], 370 ng·h/mL; under setting [12], 293 ng·h/mL.
